In article PMC9048505 (RSC Advances, 2020):

Tests used:
[1] = system: HepG-2; assay: In vitro anti-proliferative activity, MTT assay, HepG-2; format: cell-based, human; conditions: for IC50: Homo sapiens, HepG2, MTT, 24 h treatment, mean ± S.D. of three separate experiments
Experimental: (§1) The cells were obtained from ATCC (American Type Culture Collection) via the Holding company for biological products and vaccines (VACSERA) (Cairo, Egypt). […] After incubation period, the cell lines were treated with different concentration of the synthesized compounds and incubated for 24 h. After treatment by 24 h, 20 μL of MTT solution (5 mg mL^−1) was added and incubated for 4 h. Dimethyl sulfoxide (100 μL) was added into each well to dissolve the formed purple formazan. […] The relative cell viability in percentage was calculated as (A570 of treated samples/A570 of untreated sample) X 100.

[2] = system: MCF-7; assay: In vitro anti-proliferative activity, MTT assay, MCF-7; format: cell-based, human; conditions: for IC50: Homo sapiens, MCF7, MTT, 24 h treatment, mean ± S.D. of three separate experiments
Experimental: as §1

[3] = system: HCT-116; assay: In vitro anti-proliferative activity, MTT assay, HCT-116; format: cell-based, human; conditions: for IC50: Homo sapiens, HCT-116, MTT, 24 h treatment, mean ± S.D. of three separate experiments
Experimental: as §1

[4] = target: T1, purified bovine tubulin (Bos taurus, UniProt P81947+Q6B856); assay: In vitro tubulin polymerization assay; format: biochemical; conditions: purified bovine tubulin 10 μM, 37 °C; read-out: IC50 Tubulin polymerization inhibition
T1 construct: purified bovine tubulin (10 μM); from tissue; host or cells: bovine
Experimental: The inhibition assay on microtubule polymerization was evaluated turbidimetrically using a fluorescent plate reader.[52]

T1 sequence (Q6B856 whole entry): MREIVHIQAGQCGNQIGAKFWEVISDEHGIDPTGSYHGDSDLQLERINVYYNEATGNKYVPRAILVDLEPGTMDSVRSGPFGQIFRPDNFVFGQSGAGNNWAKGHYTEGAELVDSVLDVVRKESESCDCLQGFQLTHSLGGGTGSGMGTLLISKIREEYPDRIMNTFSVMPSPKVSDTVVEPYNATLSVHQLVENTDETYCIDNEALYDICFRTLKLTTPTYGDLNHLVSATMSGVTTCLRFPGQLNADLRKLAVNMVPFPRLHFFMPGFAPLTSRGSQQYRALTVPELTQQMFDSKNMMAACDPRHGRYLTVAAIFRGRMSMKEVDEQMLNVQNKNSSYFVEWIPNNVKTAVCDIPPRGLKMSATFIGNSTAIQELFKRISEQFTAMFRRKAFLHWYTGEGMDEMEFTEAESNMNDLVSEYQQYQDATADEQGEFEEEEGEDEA
T1 sequence (P81947 whole entry): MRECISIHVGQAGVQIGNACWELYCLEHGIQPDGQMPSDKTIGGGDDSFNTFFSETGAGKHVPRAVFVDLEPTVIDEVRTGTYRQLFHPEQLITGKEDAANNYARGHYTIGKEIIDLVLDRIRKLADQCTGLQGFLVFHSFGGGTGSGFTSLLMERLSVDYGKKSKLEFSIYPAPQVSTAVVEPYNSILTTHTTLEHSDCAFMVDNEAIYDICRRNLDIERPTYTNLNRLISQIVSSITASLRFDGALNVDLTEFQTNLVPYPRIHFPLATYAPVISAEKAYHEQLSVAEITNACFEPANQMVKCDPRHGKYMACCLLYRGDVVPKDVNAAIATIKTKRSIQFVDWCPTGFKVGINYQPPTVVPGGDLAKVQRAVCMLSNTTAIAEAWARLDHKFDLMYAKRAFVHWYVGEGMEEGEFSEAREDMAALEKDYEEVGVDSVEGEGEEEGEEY

| Structure (SMILES) | IC50 [2] [µM] | IC50 [3] [µM] | IC50 [4] [µM] | melting point [°C] | IC50 [1] [µM] | times as active as colchicine against HepG-2 ([1]; ratio of IC50 values) [times] | times as active as colchicine against MCF-7 ([2]; ratio of IC50 values) [times] | times as active as colchicine against HCT-116 ([3]; ratio of IC50 values) [times] |
| --- | --- | --- | --- | --- | --- | --- | --- | --- |
| COc1ccc(/C(C)=N/NC(N)=S)cc1OC [Compound 3b, (E)-2-(1-(3,4-Dimethoxyphenyl)ethylidene)hydrazine-1-carbothioamide] | 22.4 ± 1 | 17.3 ± 1.4 | 0.0445 ± 0.0023 | 205 to 207 | 12.9 ± 0.4 |  |  |  |
| COc1ccc(/C=C2/N=C(N/N=C(\C)c3ccc(C)cc3)SC2=O)cc1 [Compound 4a, 4-((E)-4-Methoxybenzylidene)-2-(2-((E)-1-(p-tolyl)ethylidene)hydrazinyl) thiazol-5(4H)-one] | > 50 | 45.6 ± 3.5 |  | 248 to 250 | 34 ± 30.9 |  |  |  |
| C/C(=N\NC1=N/C(=C/c2ccc(Cl)cc2)C(=O)S1)c1ccc(C)cc1 [Compound 4b, 4-((E)-4-Chlorobenzylidene)-2-(2-((E)-1-(p-tolyl)ethylidene)hydrazinyl) thiazol-5(4H)-one] | 22.4 ± 1 | 18.2 ± 1.3 |  | 266 to 268 | 11.14 ± 0.1 |  |  |  |
| C/C(=N\NC1=N/C(=C/c2ccc(O)cc2)C(=O)S1)c1ccc(C)cc1 [Compound 4c, 4-((E)-4-Hydroxybenzylidene)-2-(2-((E)-1-(p-tolyl)ethylidene)hydrazinyl) thiazol-5(4H)-one] | 41.8 ± 1.2 | 38.5 ± 2.5 |  | 272 to 274 | 35.2 ± 0.8 |  |  |  |
| C/C(=N\NC1=N/C(=C/c2ccc(Cl)cc2Cl)C(=O)S1)c1ccc(C)cc1 [Compound 4d, 4-((E)-2,4-Dichlorobenzylidene)-2-(2-((E)-1-(p-tolyl)ethylidene)hydrazinyl) thiazol-5(4H)-one] | 14.8 ± 0.6 | 10.6 ± 0.4 | 0.0197 ± 0.0008 | > 300 | 6.6 ± 0.1 |  |  |  |
| COc1ccc(/C=C2/N=C(N/N=C(\C)c3ccc(C)cc3)SC2=O)cc1OC [Compound 4e, 4-((E)-3,4-Dimethoxybenzylidene)-2-(2-((E)-1-(p-tolyl)ethylidene)hydrazinyl) thiazol-5(4H)-one] | 18.2 ± 0.5 | 13 ± 0.2 | 0.0474 ± 0.0018 | 254 to 256 | 12.44 ± 0.1 |  |  |  |
| C/C(=N\NC1=N/C(=C/c2ccc(O)cc2O)C(=O)S1)c1ccc(C)cc1 [Compound 4f, 4-((E)-2,4-Dihydroxybenzylidene)-2-(2-((E)-1-(p-tolyl)ethylidene)hydrazinyl) thiazol-5(4H)-one] | 4.46 ± 0.1 | 5.66 ± 0.1 | 0.00933 ± 0.0003 |  | 2.89 ± 0.1 | 2.57 | 2.34 | 1.64 |
| COc1ccc(/C=C2/N=C(N/N=C(\C)c3ccc(OC)c(OC)c3)SC2=O)cc1 [Compound 4g, 2-(2-((E)-1-(3,4-Dimethoxyphenyl)ethylidene)hydrazinyl)-4-((E)-4-methoxybenzylidene) thiazol-5(4H)-one] | 17.4 ± 0.5 | 12.9 ± 0.6 |  | 240 to 242 | 8.68 ± 0.1 |  |  |  |
| COc1ccc(/C=C2/N=C(N/N=C(\C)c3ccc(OC)c(OC)c3)SC2=O)cc1OC [Compound 4j, 4-((E)-3,4-Dimethoxybenzylidene)-2-(2-((E)-1-(3,4-dimethoxyphenyl)ethylid-ene)hydrazinyl)thiazol-5(4H)-one] | 43.3 ± 1.8 | 22.9 ± 0.7 |  | 232 to 236 | 32.6 ± 0.9 |  |  |  |

Further lines, with some results ahead:

| IC50 [2] [µM] | IC50 [3] [µM] | IC50 [4] [µM] | melting point [°C] | Structure (SMILES) | IC50 [1] [µM] | times as active as colchicine against HepG-2 ([1]; ratio of IC50 values) [times] | times as active as colchicine against MCF-7 ([2]; ratio of IC50 values) [times] | times as active as colchicine against HCT-116 ([3]; ratio of IC50 values) [times] |
| --- | --- | --- | --- | --- | --- | --- | --- | --- |
| > 50 | > 50 |  |  | C/C(=N\NC(N)=S)c1ccc(C)cc1 [Compound 3a, (E)-2-(1-(p-Tolyl)ethylidene)hydrazine-1-carbothioamide] | > 50 |  |  |  |
| 48.8 ± 1.4 | 41.8 ± 1.6 |  | 290 to 292 | COc1ccc(/C(C)=N/NC2=N/C(=C/c3ccc(O)cc3)C(=O)S2)cc1OC [Compound 4h, 2-(2-((E)-1-(3,4-Dimethoxyphenyl)ethylidene)hydrazinyl)-4-((E)-4-hydroxybenzylidene)thiazol-5(4H)-one] | 37.5 ± 0.8 |  |  |  |
| 40.1 ± 1.9 | 40.5 ± 1.1 |  | > 300 | COc1ccc(/C(C)=N/NC2=N/C(=C/c3ccc(Cl)cc3Cl)C(=O)S2)cc1OC [Compound 4i, 4-((E)-2,4-Dichlorobenzylidene)-2-(2-((E)-1-(3,4-dimethoxyphenyl)ethylid-ene)hydrazineyl) thiazol-5(4H)-one] | 31.9 ± 0.8 |  |  |  |
| 13.9 ± 0.5 | 11.7 ± 0.3 | 0.05001 ± 0.0004 | > 300 | COc1ccc(/C(C)=N/NC2=N/C(=C/c3ccc(O)cc3O)C(=O)S2)cc1OC [Compound 4k, 4-((E)-2,4-Dihydroxybenzylidene)-2-(2-((E)-1-(3,4-dimethoxyphenyl)ethylid-ene)hydrazinyl)thiazol-5(4H)-one] | 12.2 ± 0.4 |  |  |  |
